From patent US9051310B2, “Nicotinamide derivative or salt thereof” (FUJIFILM Corporation, priority 2011, dated 2015)

Tests used:
[1] = target: T1, glutathione S-transferase (GST)-linked full-length human Syk protein (Homo sapiens, UniProt P43405); experiment: Syk enzyme assay; type: biochemical; conditions: 0.83 nM Syk, time-resolved fluorescence; read-out: IC50 of Syk-inhibitory activity
T1 construct: glutathione S-transferase (GST)-linked full-length human Syk protein; purchased Carna Biosciences; host or cells: Baculovirus expression system
Procedure, shortened: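 Phosphotyrosine on a biotin-peptide substrate (0.5 μM) was read by time-resolved fluorescence at 615 and 665 nm with Eu-anti-pTyr antibody and APC-streptavidin after 1 h EDTA stop.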

[2] = test system: THP-1 cells (TNFα secretion on human IgG-coated plate); experiment: TNFα generation assay; type: cell-based; conditions: IFN-γ differentiated THP-1 cells, 7 hours, AlphaLISA, read-out: IC50 of TNFα generation inhibitory activity
Procedure, shortened: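 Secreted TNFα was measured by AlphaLISA after 7 h of culture on human IgG-coated wells (coating at 10 μg/ml), with 5×10^4 cells/well. Before plating, the cells had been treated with compound for 30 min at room temperature. The cells were macrophage-like THP-1, produced by a 2-day exposure to 10 ng/ml IFN-γ.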

Row | Compound | IC50 [1] [µM] | IC50 [2] [µM]
1 | Cc1nn(CC(F)F)c2ccc(Nc3nc(N[C@@H](CN)CC(C)C)c(F)cc3C(N)=O)cc12 [Example 2-137] | < 0.01 | 0.065 to 0.13
2 | CCC[C@@H](Nc1nc(Nc2ccc3c(c2)c(C)nn3CC(F)F)c(C(N)=O)cc1F)[C@H](C)N [Example 2-138] | < 0.01 | < 0.065
3 | COC[C@@H](Nc1nc(Nc2ccc3c(c2)c(C)nn3CC(F)F)c(C(N)=O)cc1F)[C@H](C)N [Example 2-139, 6-(((2S,3S)-3-amino-1-methoxybutan-2-yl)amino)-2-((1-(2,2-difluoroethyl)-3-methyl-1H-indazol-5-yl)amino)-5-fluoronicotinamide] | < 0.01 | 0.065 to 0.13
4 | COc1ncc(Nc2nc(N[C@H](CC(C)C)[C@H](C)N)c(F)cc2C(N)=O)cc1-n1ccnn1 [Example 2-141, 6-(((2S,3R)-2-amino-5-methylhexan-3-yl)amino)-5-fluoro-2-((6-methoxy-5-(1H-1,2,3-triazol-1-yl)pyridin-3-yl)amino)nicotinamide] | 0.01 to 0.05 | 0.13 to 0.2
5 | CC[C@@H](Nc1nc(Nc2cc(Cl)c3c(cnn3C)c2)c(C(N)=O)cc1F)[C@H](C)N [Example 2-148, 6-(((2S,3R)-2-aminopentan-3-yl)amino)-2-((7-chloro-1-methyl-1H-indazol-5-yl)amino)-5-fluoronicotinamide] | < 0.01 | 0.065 to 0.13
6 | COC[C@@H](Nc1nc(Nc2cc(Cl)c3c(cnn3C)c2)c(C(N)=O)cc1F)[C@H](C)N [Example 2-149, 6-(((2S,3S)-3-amino-1-methoxybutan-2-yl)amino)-2-((7-chloro-1-methyl-1H-indazol-5-yl)amino)-5-fluoronicotinamide] | < 0.01 | 0.065 to 0.13
7 | COc1nn(C)c2c(F)cc(Nc3nc(N[C@@H]4CCCC[C@@H]4N)c(F)cc3C(N)=O)cc12 [Example 2-150, 6-(((1R,2S)-2-aminocyclohexyl)amino)-5-fluoro-2-((7-fluoro-3-methoxy-1-methyl-1H-indazol-5-yl)amino)nicotinamide] | < 0.01 | 0.13 to 0.2
8 | COc1nn(C)c2c(F)cc(Nc3nc(N[C@@H](CN)CC(C)C)c(F)cc3C(N)=O)cc12 [Example 2-151, (R)-6-((1-amino-4-methylpentan-2-yl)amino)-5-fluoro-2-((7-fluoro-3-methoxy-1-methyl-1H-indazol-5-yl)amino)nicotinamide] | < 0.01 | 0.13 to 0.2
9 | CC[C@@H](Nc1nc(Nc2cc(F)c3c(c2)c(OC)nn3C)c(C(N)=O)cc1F)[C@H](C)N [Example 2-152, 6-(((2S,3R)-2-aminopentan-3-yl)amino)-5-fluoro-2-((7-fluoro-3-methoxy-1-methyl-1H-indazol-5-yl)amino)nicotinamide] | < 0.01 | 0.13 to 0.2
10 | CCC[C@@H](Nc1nc(Nc2cc(F)c3c(c2)c(OC)nn3C)c(C(N)=O)cc1F)[C@H](C)N [Example 2-153, 6-(((2S,3R)-2-aminohexan-3-yl)amino)-5-fluoro-2-((7-fluoro-3-methoxy-1-methyl-1H-indazol-5-yl)amino)nicotinamide] | < 0.01 | 0.13 to 0.2
11 | COC[C@@H](Nc1nc(Nc2cc(F)c3c(c2)c(OC)nn3C)c(C(N)=O)cc1F)[C@H](C)N [Example 2-159, 6-(((2S,3S)-3-amino-1-methoxybutan-2-yl)amino)-5-fluoro-2-((7-fluoro-3-methoxy-1-methyl-1H-indazol-5-yl)amino)nicotinamide] | < 0.01 | 0.065 to 0.13
12 | CC(C)C[C@@H](Nc1nc(Nc2ccc3c(c2)c(OC(F)F)nn3C)c(C(N)=O)cc1F)[C@H](C)N [Example 2-172, 6-(((2S,3R)-2-amino-5-methylhexan-3-yl)amino)-2-((3-(difluoromethoxy)-1-methyl-1H-indazol-5-yl)amino)-5-fluoronicotinamide] | < 0.01 | 0.13 to 0.2
13 | COC[C@@H](Nc1nc(Nc2ccc3c(c2)c(OC(F)F)nn3C)c(C(N)=O)cc1F)[C@H](C)N [Example 2-173, 6-(((2S,3S)-3-amino-1-methoxybutan-2-yl)amino)-2-((3-(difluoromethoxy)-1-methyl-1H-indazol-5-yl)amino)-5-fluoronicotinamide] | < 0.01 | 0.065 to 0.13
14 | CCOC[C@@H](Nc1nc(Nc2ccc3c(cnn3C)c2)c(C(N)=O)cc1F)[C@H](C)N [Example 2-179, 6-(((2S,3S)-3-amino-1-ethoxybutan-2-yl)amino)-5-fluoro-2-((1-methyl-1H-indazol-5-yl)amino)nicotinamide] | 0.01 to 0.05 | 0.13 to 0.2
15 | CCOC[C@@H](Nc1nc(Nc2cccc3c2cnn3CC)c(C(N)=O)cc1F)[C@H](C)N [Example 2-180, 6-(((2S,3S)-3-amino-1-ethoxybutan-2-yl)amino)-2-((1-ethyl-1H-indazol-4-yl)amino)-5-fluoronicotinamide] | 0.01 to 0.05 | 0.13 to 0.2
16 | CCOC[C@@H](Nc1nc(Nc2ccc3c(cnn3CC)c2)c(C(N)=O)cc1F)[C@H](C)N [Example 2-182, 6-(((2S,3S)-3-amino-1-ethoxybutan-2-yl)amino)-2-((1-ethyl-1H-indazol-5-yl)amino)-5-fluoronicotinamide] | < 0.01 | 0.065 to 0.13
17 | CC(C)C[C@H](CN)Nc1nc(Nc2cc(F)c3c(c2)c(N(C)C)nn3C)c(C(N)=O)cc1F [Example 2-185, (R)-6-((1-amino-4-methylpentan-2-yl)amino)-2-((3-(dimethylamino)-7-fluoro-1-methyl-1H-indazol-5-yl)amino)-5-fluoronicotinamide] | < 0.01 | 0.13 to 0.2
18 | CC[C@@H](Nc1nc(Nc2cc(F)c3c(c2)c(N(C)C)nn3C)c(C(N)=O)cc1F)[C@H](C)N [Example 2-186, 6-(((2S,3R)-2-aminopentan-3-yl)amino)-2-((3-(dimethylamino)-7-fluoro-1-methyl-1H-indazol-5-yl)amino)-5-fluoronicotinamide] | < 0.01 | 0.065 to 0.13
19 | CCC[C@@H](Nc1nc(Nc2cc(F)c3c(c2)c(N(C)C)nn3C)c(C(N)=O)cc1F)[C@H](C)N [Example 2-187, 6-(((2S,3R)-2-aminohexan-3-yl)amino)-2-((3-(dimethylamino)-7-fluoro-1-methyl-1H-indazol-5-yl)amino)-5-fluoronicotinamide] | < 0.01 | 0.065 to 0.13
20 | COC[C@@H](Nc1nc(Nc2ccc3c(c2)c(C)nn3C)c(C(N)=O)cc1F)[C@H](C)N [Example 2-196, 6-(((2S,3S)-3-amino-1-methoxybutan-2-yl)amino)-2-((1,3-dimethyl-1H-indazol-5-yl)amino)-5-fluoronicotinamide] | < 0.01 | 0.065 to 0.13
21 | CCC[C@@H](Nc1nc(Nc2cnc(OCC)c(-n3ccnn3)c2)c(C(N)=O)cc1F)[C@H](C)N [Example 2-207, 6-(((2S,3R)-2-aminohexan-3-yl)amino)-2-((6-ethoxy-5-(1H-1,2,3-triazol-1-yl)pyridin-3-yl)amino)-5-fluoronicotinamide] | < 0.01 | 0.065 to 0.13
22 | Cc1nn(C)c2ccc(Nc3nc(N[C@@H]4CCOC[C@@H]4N)c(F)cc3C(N)=O)cc12 [Example 2-208, 6-(((3R,4R)-3-aminotetrahydro-2H-pyran-4-yl)amino)-2-((1,3-dimethyl-1H-indazol-5-yl)amino)-5-fluoronicotinamide] | < 0.01 | < 0.065
